Results as given in patent US10548905B2, “Amorphous onapristone compositions and methods of making the same” (CONTEXT BIOPHARMA INC., priority 2015, dated 2020).

Experiments:
[1] = Physical stability of amorphous form on storage under ambient conditions, followed by XRPD; assay type: physicochemical
Text: (§1) The physical form of onapristone, either as the bulk drug substance or in its compositions, was established using X-ray powder diffraction (XRPD). XRPD patterns were obtained using a Rigaku MiniFlex powder diffraction system, equipped with a horizontal goniometer operating in the θ/2θ mode. The X-ray source was nickel-filtered Kα emission of copper (1.54184 Å). Samples were packed into the sample holder using a back-fill procedure, and were scanned over the range of 3.5 to 40 degrees 2θ at a scan rate of 0.5 degrees 2θ/min. Using a data acquisition rate of 1 point per second, these scanning parameters equate to a step size of 0.0084 degrees 2θ. Calibration of the diffractometer system was effected using purified talc as a reference material. The intensity scale for all diffraction patterns was normalized so that the relative intensity of the most intense peak in the pattern equaled 100%.
After the initial characterization, the substance was placed in a glass vial, and stored under ambient conditions (temperature of 22-24° C.). The product was subsequently obtained after storage under ambient conditions for 25 weeks, 43 weeks, and 16.5 months.
XRPD patterns of these samples were obtained when initially received and after 12 weeks, 20 weeks, 36 weeks, and 15 months had elapsed. The XRPD patterns obtained for sample SSF-PDS-027-001A are collected in FIG. 2, while the XRPD patterns obtained for sample SSF-PDS-027-001B are collected in FIG. 3.

[2] = Physical form by X-ray powder diffraction (XRPD); assay type: physicochemical; conditions: no sharp scattering peaks attributable to crystalline onapristone
Text: In one aspect, amorphous onapristone is formed by adding onapristone to water, dissolving the onapristone in the water by adding one equivalent of an acid solution, and subsequently increasing the pH of the solution by the addition of one equivalent of base. At the end of this process, an amorphous precipitate is formed which may be isolated and characterized. […] The presence of a crystalline substance is indicated by the presence of sharp peaks (i.e., those whose width at half-height is in the range of 0.3 to 0.5 degrees 2θ) in an XRPD pattern, while the XRPD pattern of an amorphous substance is characterized by the presence of broad scattering peaks (i.e., those whose width at half-height is in the range of at least 8 to 12 degrees 2θ).
as §1, with “Calibration of the diffractometer system was effected using purified talc as a reference material. The intensity scale for all diffraction patterns was normalized so that the relative intensity of the most intense peak in the pattern equaled 100%.” left out

SMILES	storage period over which the drug substance remained amorphous ([1]; stored under ambient conditions)	physical form of onapristone by XRPD as initially prepared [2]	storage period over which the drug substance remained amorphous ([1]; stored under ambient conditions (22-24° C.)) [months]	storage period over which the drug substance remained amorphous ([1]; stored under ambient conditions (22-24° C.), listed as pH-cycled product)
CN(C)c1ccc([C@H]2C[C@]3(C)[C@@H](CC[C@]3(O)CCCO)[C@@H]3CCC4=CC(=O)CCC4=C32)cc1 [solvation-desolvation product]	at least 29 weeks			
CN(C)c1ccc([C@H]2C[C@]3(C)[C@@H](CC[C@]3(O)CCCO)[C@@H]3CCC4=CC(=O)CCC4=C32)cc1 [pH-cycled onapristone]		amorphous	≥ 16.5	at least 16.5 months
